Tests used:
PDE4C1 = molecular target: T1, PDE4C1 (Homo sapiens, UniProt Q08493); assay: Recombinant PDE4 isoform inhibition assay (BPS Bioscience kit, fluorescence polarization); format: biochemical
T1 construct: purchased BPS Bioscience
Experimental: (§1) Recombinant PDE assay inhibition can be measured according to the BPS Bioscience PDE4 assay kit, as described below.
(§2) • 1) Dilute 20 μM FAM-Cyclic-3′, 5′-AMP stock 100-fold with PDE buffer to make a 200 nM
(§3) • 2) Add 25 μl of FAM-Cyclic-3′,5′-AMP (200 nM) to each well designated “Positive Control”, “Test Inhibitor”, and “Substrate Control”. • 3) Add 20 μl of PDE assay buffer to each well designated “Substrate Control” and 45 μl of PDE assay buffer to each well designated “Blank”. • 4) Add 5 μl of inhibitor solution to each well designated “Test Inhibitor”. For the wells labeled “Positive Control”, “Substrate Control” and “Blank”, add 5 μl of the same solution without inhibitor (inhibitor buffer). • 5) Thaw PDE on ice. Upon first thaw, briefly spin tube containing enzyme to recover the full contents of the tube. • 6) Dilute PDE4 in PDE buffer to 7.5 pg/μl (0.15 ng/reaction)*. Initiate reaction by adding 20 μl of PDE4 (7.5 pg/μl) to the wells designated “Positive Control” and “Test Inhibitor.” • 7) Incubate at room temperature for 1 hour.
(§4) • 1) Mix binding agent thoroughly and dilute binding agent 1:100 with binding agent diluent. • 2) Add 100 μl diluted binding agent to each microwell. Incubate at room temperature for 1 hour with slow shaking. • 3) Read the fluorescent polarization of the sample in a microtiter-plate reader equipped for the measurement of fluorescence polarization, capable of excitation at wavelengths ranging from 485±5 nm and detection of emitted light ranging from 528±10 nm. Blank value is subtracted from all other values.

PDE4A1A = molecular target: T2, PDE4A1A (Homo sapiens, UniProt P27815); assay: as above; format: biochemical
T2 construct: purchased BPS Bioscience
Experimental: as §1, §2, §3, §4

PDE4B2 = molecular target: T3, PDE4B2 (Homo sapiens, UniProt Q07343); assay: as above; format: biochemical
T3 construct: purchased BPS Bioscience
Experimental: as §1, §2, §3, §4

PDE4D2 = molecular target: T4, PDE4D2 (Homo sapiens, UniProt Q08499); assay: as above; format: biochemical
T4 construct: purchased BPS Bioscience
Experimental: as §1, §2, §3, §4

SERT = molecular target: T5, SERT (Homo sapiens, UniProt P31645); assay: SERT inhibition assay (Neurotransmitter Transportation Fluorescence assay); format: cell-based; conditions: stable 5HTT cells, assay of Example B1
T5 construct: expressed in transfected cells
Experimental: SERT inhibition was measured using a Neruotransmitter Transportation Fluorescence assay. Briefly, stable SHTT cells were prepared in a 384 microwell plate. Compounds were prepared in assay buffer (20 mM HEPES in HBSS, 0.1% BSA). The compounds were added to the plated cells and incubated for 30 minutes at 37° C. 25 μL of dye solution (Molecular Devices Neurotransmitter Transporter Uptake Assay Kit) was added per well and incubated for 30 minutes at 37° C. The plates were then read on a plate reader.

[1] = cited from earlier work

T3 sequence (Q07343 1-564 isoform Q07343-2): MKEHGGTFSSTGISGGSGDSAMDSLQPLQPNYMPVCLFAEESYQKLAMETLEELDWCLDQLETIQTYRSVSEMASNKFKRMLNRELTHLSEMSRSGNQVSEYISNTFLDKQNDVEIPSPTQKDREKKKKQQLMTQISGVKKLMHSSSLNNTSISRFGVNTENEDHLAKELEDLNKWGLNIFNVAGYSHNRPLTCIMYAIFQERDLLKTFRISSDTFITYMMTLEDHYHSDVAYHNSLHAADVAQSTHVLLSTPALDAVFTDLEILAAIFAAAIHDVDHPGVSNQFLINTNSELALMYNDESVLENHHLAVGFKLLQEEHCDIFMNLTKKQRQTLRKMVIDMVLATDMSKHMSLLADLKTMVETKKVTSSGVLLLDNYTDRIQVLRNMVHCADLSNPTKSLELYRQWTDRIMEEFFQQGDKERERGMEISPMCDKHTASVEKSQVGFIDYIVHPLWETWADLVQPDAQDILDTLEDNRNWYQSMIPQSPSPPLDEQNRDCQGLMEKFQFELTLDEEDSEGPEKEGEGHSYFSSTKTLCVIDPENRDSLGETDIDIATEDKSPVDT
T4 sequence (Q08499 303-809 limits assumed): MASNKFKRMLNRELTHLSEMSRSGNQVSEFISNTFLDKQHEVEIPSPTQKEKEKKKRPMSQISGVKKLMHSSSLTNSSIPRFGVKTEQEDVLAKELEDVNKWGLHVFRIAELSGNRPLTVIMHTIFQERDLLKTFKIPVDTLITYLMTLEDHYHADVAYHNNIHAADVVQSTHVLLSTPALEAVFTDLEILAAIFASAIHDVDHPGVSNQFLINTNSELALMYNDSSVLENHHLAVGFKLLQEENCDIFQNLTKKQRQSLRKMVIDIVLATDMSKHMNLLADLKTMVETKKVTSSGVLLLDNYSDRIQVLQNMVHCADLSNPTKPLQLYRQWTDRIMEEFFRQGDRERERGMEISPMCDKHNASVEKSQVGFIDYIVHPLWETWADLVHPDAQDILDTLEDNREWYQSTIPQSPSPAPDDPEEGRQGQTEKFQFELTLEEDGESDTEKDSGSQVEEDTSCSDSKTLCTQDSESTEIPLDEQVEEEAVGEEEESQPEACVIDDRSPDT
T5 sequence (P31645 whole entry, species assumed): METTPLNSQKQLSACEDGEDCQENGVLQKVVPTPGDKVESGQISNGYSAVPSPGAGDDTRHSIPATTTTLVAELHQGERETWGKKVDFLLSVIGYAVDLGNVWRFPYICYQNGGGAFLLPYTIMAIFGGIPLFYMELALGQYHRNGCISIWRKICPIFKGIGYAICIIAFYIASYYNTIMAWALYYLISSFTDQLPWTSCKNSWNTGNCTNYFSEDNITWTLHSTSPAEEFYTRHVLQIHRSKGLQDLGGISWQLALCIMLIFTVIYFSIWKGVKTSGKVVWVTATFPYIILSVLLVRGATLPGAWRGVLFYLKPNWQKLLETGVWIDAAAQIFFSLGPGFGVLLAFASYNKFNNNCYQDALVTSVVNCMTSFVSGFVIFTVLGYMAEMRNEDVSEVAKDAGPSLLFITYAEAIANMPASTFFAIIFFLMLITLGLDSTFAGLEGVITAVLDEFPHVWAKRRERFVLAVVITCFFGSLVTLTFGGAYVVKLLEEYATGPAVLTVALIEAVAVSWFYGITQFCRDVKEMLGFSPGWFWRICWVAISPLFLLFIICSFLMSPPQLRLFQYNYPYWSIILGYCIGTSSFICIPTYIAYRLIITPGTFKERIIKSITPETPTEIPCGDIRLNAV
T1 sequence (Q08493 whole entry, canonical isoform): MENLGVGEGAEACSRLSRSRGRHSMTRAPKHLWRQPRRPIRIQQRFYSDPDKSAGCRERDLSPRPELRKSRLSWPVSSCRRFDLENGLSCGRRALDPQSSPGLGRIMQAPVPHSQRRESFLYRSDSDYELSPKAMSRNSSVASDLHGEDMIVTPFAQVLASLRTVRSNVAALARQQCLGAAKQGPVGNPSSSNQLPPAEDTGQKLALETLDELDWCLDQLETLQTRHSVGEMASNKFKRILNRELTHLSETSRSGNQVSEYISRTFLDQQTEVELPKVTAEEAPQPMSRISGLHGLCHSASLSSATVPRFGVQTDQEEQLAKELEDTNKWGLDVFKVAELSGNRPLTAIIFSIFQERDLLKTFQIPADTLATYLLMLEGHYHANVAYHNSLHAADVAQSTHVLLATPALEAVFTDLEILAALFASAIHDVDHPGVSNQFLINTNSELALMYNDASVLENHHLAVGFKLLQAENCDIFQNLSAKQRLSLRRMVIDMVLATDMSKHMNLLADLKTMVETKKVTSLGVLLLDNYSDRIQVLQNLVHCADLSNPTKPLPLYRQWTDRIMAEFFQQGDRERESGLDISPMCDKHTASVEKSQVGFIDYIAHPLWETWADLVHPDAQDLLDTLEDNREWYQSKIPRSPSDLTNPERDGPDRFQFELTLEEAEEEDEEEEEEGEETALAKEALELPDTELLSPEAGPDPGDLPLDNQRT
T2 sequence (P27815 1-647 isoform P27815-4): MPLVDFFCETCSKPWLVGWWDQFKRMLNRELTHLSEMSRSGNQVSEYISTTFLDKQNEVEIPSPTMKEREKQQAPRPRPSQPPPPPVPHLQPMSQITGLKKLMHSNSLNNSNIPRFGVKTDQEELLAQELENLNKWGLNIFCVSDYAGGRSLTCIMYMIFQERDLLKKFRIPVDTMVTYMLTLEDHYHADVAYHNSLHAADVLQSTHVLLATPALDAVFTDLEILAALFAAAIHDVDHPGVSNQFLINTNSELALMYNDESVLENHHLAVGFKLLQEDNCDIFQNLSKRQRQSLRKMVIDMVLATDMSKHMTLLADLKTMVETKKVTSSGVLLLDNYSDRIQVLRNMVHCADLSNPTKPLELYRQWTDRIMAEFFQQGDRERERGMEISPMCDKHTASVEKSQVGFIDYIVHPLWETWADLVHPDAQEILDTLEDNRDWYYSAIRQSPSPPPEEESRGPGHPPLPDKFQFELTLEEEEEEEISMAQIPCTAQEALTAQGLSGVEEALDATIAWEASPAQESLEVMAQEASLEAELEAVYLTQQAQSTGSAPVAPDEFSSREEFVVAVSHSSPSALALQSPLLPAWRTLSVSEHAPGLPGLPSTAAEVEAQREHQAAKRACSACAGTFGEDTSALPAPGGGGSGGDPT

SMILES	inhibition at 10 µM (PDE4C1)	inhibition at 10 µM (PDE4A1A)	inhibition at 10 µM (PDE4B2)	inhibition at 10 µM (PDE4D2)	IC50 (SERT)	half-life in plasma [1]
COc1ccc([C@]23CCN(C)[C@H]2CC(=O)C[C@H]3C)cc1OC (single isomer, unassigned) [Compound 102]	< 20%	< 20%	< 20%	< 20%	< 250 nM	
COc1ccc([C@@]23CCN(C)[C@@H]2CC(=O)C[C@@H]3C)cc1OC (single isomer, unassigned) [Compound 103]	< 20%	< 20%	< 20%	< 20%	< 250 nM	
COc1ccc([C@@]23CCC(=O)C[C@@H]2N(C)CC3)cc1OC [(−) mesembrine]						less than 2 hours
